# Experimental data from PubChem BioAssay (NCI).
#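 Cultured in 96-well plates, cells were exposed to test compound for 48 hours across five concentrations. At the TGI there is no net growth.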
# Assays:
# Experiment in all cases: NCI anticancer screen, dose series, 48 h
# 786-0 renal = system: 786-0 renal
# A498 renal = system: A498 renal
# A549 NSCLC = system: A549 NSCLC
# ACHN renal = system: ACHN renal
# BT-549 breast = system: BT-549 breast
# CAKI-1 renal = system: CAKI-1 renal
# CCRF-CEM leukemia = system: CCRF-CEM leukemia
# COLO 205 colon = system: COLO 205 colon
# DU-145 prostate = system: DU-145 prostate
# EKVX NSCLC = system: EKVX NSCLC
# HCC-2998 colon = system: HCC-2998 colon
# HCT-116 colon = system: HCT-116 colon
# HCT-15 colon = system: HCT-15 colon
# HL-60(TB) leukemia = system: HL-60(TB) leukemia
# HOP-62 NSCLC = system: HOP-62 NSCLC
# HOP-92 NSCLC = system: HOP-92 NSCLC
# HS 578T breast = system: HS 578T breast
# HT29 colon = system: HT29 colon
# IGROV1 ovarian = system: IGROV1 ovarian
# K-562 leukemia = system: K-562 leukemia
# KM12 colon = system: KM12 colon
# LOX IMVI melanoma = system: LOX IMVI melanoma
# M14 melanoma = system: M14 melanoma
# MALME-3M melanoma = system: MALME-3M melanoma
# MCF7 breast = system: MCF7 breast
# MDA-MB-231 breast = system: MDA-MB-231 breast
# MDA-MB-435 = system: MDA-MB-435
# MDA-N = system: MDA-N
# MOLT-4 leukemia = system: MOLT-4 leukemia
# NCI-H226 lung = system: NCI-H226 lung
# NCI-H23 lung = system: NCI-H23 lung
# NCI-H460 lung = system: NCI-H460 lung
# NCI-H522 lung = system: NCI-H522 lung
# NCI/ADR-RES ovarian = system: NCI/ADR-RES ovarian
# OVCAR-3 ovarian = system: OVCAR-3 ovarian
# OVCAR-4 ovarian = system: OVCAR-4 ovarian
# OVCAR-5 ovarian = system: OVCAR-5 ovarian
# OVCAR-8 ovarian = system: OVCAR-8 ovarian
# PC-3 prostate = system: PC-3 prostate
# RPMI-8226 leukemia = system: RPMI-8226 leukemia
# RXF 393 renal = system: RXF 393 renal
# SF-268 CNS = system: SF-268 CNS
# SF-295 CNS = system: SF-295 CNS
# SF-539 CNS = system: SF-539 CNS
# SK-MEL-2 melanoma = system: SK-MEL-2 melanoma
# SK-MEL-28 melanoma = system: SK-MEL-28 melanoma
# SK-MEL-5 melanoma = system: SK-MEL-5 melanoma
# SK-OV-3 ovarian = system: SK-OV-3 ovarian
# SN12C renal = system: SN12C renal
# SNB-19 CNS = system: SNB-19 CNS
# SNB-75 CNS = system: SNB-75 CNS
# SR leukemia = system: SR leukemia
# SW-620 colon = system: SW-620 colon
# T-47D breast = system: T-47D breast
# TK-10 renal = system: TK-10 renal
# U251 CNS = system: U251 CNS
# UACC-257 melanoma = system: UACC-257 melanoma
# UACC-62 melanoma = system: UACC-62 melanoma
# UO-31 renal = system: UO-31 renal
structure (smiles),measurement,setting,value
N#Cc1c(Cl)cc(Cl)n2c1nc1ccccc12,TGI,786-0 renal,7.63 µM
same,TGI,A498 renal,47.3 µM
same,TGI,A549 NSCLC,34.7 µM
same,TGI,ACHN renal,6.65 µM
same,TGI,BT-549 breast,15.5 µM
same,TGI,CAKI-1 renal,7.67 µM
same,TGI,CCRF-CEM leukemia,> 100 µM
same,TGI,COLO 205 colon,21.2 µM
same,TGI,DU-145 prostate,31.8 µM
same,TGI,EKVX NSCLC,67.6 µM
same,TGI,HCC-2998 colon,8.44 µM
same,TGI,HCT-116 colon,29.8 µM
same,TGI,HCT-15 colon,12.3 µM
same,TGI,HL-60(TB) leukemia,> 31.1 µM
same,TGI,HOP-62 NSCLC,51.7 µM
same,TGI,HOP-92 NSCLC,> 21.9 µM
same,TGI,HS 578T breast,32.8 µM
same,TGI,HT29 colon,23.6 µM
same,TGI,IGROV1 ovarian,38.7 µM
same,TGI,K-562 leukemia,11.5 µM
same,TGI,KM12 colon,33.1 µM
same,TGI,LOX IMVI melanoma,18.7 µM
same,TGI,M14 melanoma,24.5 µM
same,TGI,MALME-3M melanoma,7.36 µM
same,TGI,MCF7 breast,24 µM
same,TGI,MDA-MB-231 breast,14.2 µM
same,TGI,MDA-MB-435,35.3 µM
same,TGI,MDA-N,26.3 µM
same,TGI,MOLT-4 leukemia,> 28.8 µM
same,TGI,NCI-H226 lung,33.8 µM
same,TGI,NCI-H23 lung,39.9 µM
same,TGI,NCI-H460 lung,23.7 µM
same,TGI,NCI-H522 lung,3.61 µM
same,TGI,NCI/ADR-RES ovarian,40.5 µM
same,TGI,OVCAR-3 ovarian,15.6 µM
same,TGI,OVCAR-4 ovarian,34 µM
same,TGI,OVCAR-5 ovarian,41.9 µM
same,TGI,OVCAR-8 ovarian,35 µM
same,TGI,PC-3 prostate,29.3 µM
same,TGI,RPMI-8226 leukemia,58.9 µM
same,TGI,RXF 393 renal,26.7 µM
same,TGI,SF-268 CNS,40.1 µM
same,TGI,SF-295 CNS,32.4 µM
same,TGI,SF-539 CNS,12 µM
same,TGI,SK-MEL-2 melanoma,33.4 µM
same,TGI,SK-MEL-28 melanoma,20.3 µM
same,TGI,SK-MEL-5 melanoma,32.7 µM
same,TGI,SK-OV-3 ovarian,31.2 µM
same,TGI,SN12C renal,42.1 µM
same,TGI,SNB-19 CNS,50.7 µM
same,TGI,SNB-75 CNS,32.7 µM
same,TGI,SR leukemia,> 29.6 µM
same,TGI,SW-620 colon,> 45 µM
same,TGI,T-47D breast,31.8 µM
same,TGI,TK-10 renal,18.1 µM
same,TGI,U251 CNS,55.5 µM
same,TGI,UACC-257 melanoma,25.1 µM
same,TGI,UACC-62 melanoma,29.8 µM
same,TGI,UO-31 renal,13.5 µM
O=C1C(=Cc2ccccc2O)N=C(c2ccccc2)N1n1c(-c2ccccc2)nc2ccccc2c1=O,TGI,786-0 renal,> 100 µM
same,TGI,A498 renal,64.1 µM
same,TGI,A549 NSCLC,> 100 µM
same,TGI,ACHN renal,89.3 µM
same,TGI,BT-549 breast,89.9 µM
same,TGI,CAKI-1 renal,84.8 µM
same,TGI,CCRF-CEM leukemia,88.6 µM
same,TGI,COLO 205 colon,> 100 µM
same,TGI,DU-145 prostate,> 100 µM
same,TGI,EKVX NSCLC,> 100 µM
same,TGI,HCC-2998 colon,89.2 µM
same,TGI,HCT-116 colon,89.8 µM
same,TGI,HCT-15 colon,> 100 µM
same,TGI,HL-60(TB) leukemia,31.9 µM
same,TGI,HOP-62 NSCLC,96.8 µM
same,TGI,HS 578T breast,> 100 µM
same,TGI,HT29 colon,> 100 µM
same,TGI,IGROV1 ovarian,> 100 µM
same,TGI,K-562 leukemia,78.2 µM
same,TGI,KM12 colon,98.4 µM
same,TGI,LOX IMVI melanoma,> 100 µM
same,TGI,M14 melanoma,57.1 µM
same,TGI,MALME-3M melanoma,> 100 µM
same,TGI,MCF7 breast,64.3 µM
same,TGI,MDA-MB-231 breast,> 100 µM
same,TGI,MDA-MB-435,> 100 µM
same,TGI,MDA-N,> 100 µM
same,TGI,MOLT-4 leukemia,77.7 µM
same,TGI,NCI-H226 lung,79 µM
same,TGI,NCI-H23 lung,89.5 µM
same,TGI,NCI-H460 lung,> 100 µM
same,TGI,NCI-H522 lung,67.1 µM
same,TGI,OVCAR-8 ovarian,> 100 µM
same,TGI,PC-3 prostate,> 100 µM
same,TGI,RPMI-8226 leukemia,> 100 µM
same,TGI,SF-268 CNS,88.3 µM
same,TGI,SF-295 CNS,56.8 µM
same,TGI,SF-539 CNS,50 µM
same,TGI,SK-MEL-28 melanoma,> 100 µM
same,TGI,SK-MEL-5 melanoma,41.7 µM
same,TGI,SK-OV-3 ovarian,> 100 µM
same,TGI,SN12C renal,> 100 µM
same,TGI,SNB-19 CNS,> 100 µM
same,TGI,SNB-75 CNS,87.8 µM
same,TGI,SR leukemia,> 100 µM
same,TGI,SW-620 colon,> 100 µM
same,TGI,T-47D breast,93 µM
same,TGI,TK-10 renal,> 100 µM
same,TGI,UACC-257 melanoma,69.1 µM
same,TGI,UACC-62 melanoma,> 100 µM
same,TGI,UO-31 renal,86.5 µM
Nc1ccc(C(=O)N2CCC[C@H]2CO)c(N)c1,TGI,786-0 renal,> 100 µM
same,TGI,A498 renal,> 100 µM
same,TGI,A549 NSCLC,> 100 µM
same,TGI,ACHN renal,> 100 µM
same,TGI,BT-549 breast,> 100 µM
same,TGI,CAKI-1 renal,> 100 µM
same,TGI,CCRF-CEM leukemia,> 100 µM
same,TGI,COLO 205 colon,> 100 µM
same,TGI,DU-145 prostate,> 100 µM
same,TGI,EKVX NSCLC,> 100 µM
same,TGI,HCC-2998 colon,> 100 µM
same,TGI,HCT-116 colon,> 100 µM
same,TGI,HCT-15 colon,> 100 µM
same,TGI,HL-60(TB) leukemia,> 100 µM
same,TGI,HOP-62 NSCLC,> 100 µM
same,TGI,HOP-92 NSCLC,> 100 µM
same,TGI,HS 578T breast,> 100 µM
same,TGI,HT29 colon,> 100 µM
same,TGI,IGROV1 ovarian,> 100 µM
same,TGI,K-562 leukemia,> 100 µM
same,TGI,KM12 colon,> 100 µM
same,TGI,LOX IMVI melanoma,> 100 µM
same,TGI,M14 melanoma,> 100 µM
same,TGI,MCF7 breast,> 100 µM
same,TGI,MDA-MB-231 breast,> 100 µM
same,TGI,MDA-MB-435,> 100 µM
same,TGI,MDA-N,> 100 µM
same,TGI,MOLT-4 leukemia,> 100 µM
same,TGI,NCI-H226 lung,> 100 µM
same,TGI,NCI-H23 lung,> 100 µM
same,TGI,NCI-H460 lung,> 100 µM
same,TGI,NCI-H522 lung,> 100 µM
same,TGI,NCI/ADR-RES ovarian,> 100 µM
same,TGI,OVCAR-3 ovarian,> 100 µM
same,TGI,OVCAR-4 ovarian,> 100 µM
same,TGI,OVCAR-5 ovarian,> 100 µM
same,TGI,OVCAR-8 ovarian,> 100 µM
same,TGI,PC-3 prostate,> 100 µM
same,TGI,RPMI-8226 leukemia,> 100 µM
same,TGI,RXF 393 renal,> 100 µM
same,TGI,SF-268 CNS,> 100 µM
same,TGI,SF-295 CNS,> 100 µM
same,TGI,SF-539 CNS,> 100 µM
same,TGI,SK-MEL-2 melanoma,> 100 µM
same,TGI,SK-MEL-28 melanoma,> 100 µM
same,TGI,SK-MEL-5 melanoma,> 100 µM
same,TGI,SK-OV-3 ovarian,> 100 µM
same,TGI,SN12C renal,> 100 µM
same,TGI,SNB-19 CNS,> 100 µM
same,TGI,SNB-75 CNS,> 100 µM
same,TGI,SR leukemia,> 100 µM
same,TGI,SW-620 colon,> 100 µM
same,TGI,T-47D breast,> 100 µM
same,TGI,TK-10 renal,> 100 µM
same,TGI,U251 CNS,> 100 µM
same,TGI,UACC-257 melanoma,> 100 µM
same,TGI,UACC-62 melanoma,> 100 µM
same,TGI,UO-31 renal,> 100 µM
